# Where a name gives a salt, the structure may show the parent alone.
# Key:
# hTLR8 = target: T1, hTLR8 (Homo sapiens, UniProt Q9NR97); test: TLR7/TLR8 reporter assay, HEK-Blue hTLR8 reporter cells; assay type: cell-based; conditions: 17 hours, optical density at 640 nm
# T1 construct: host or cells: HEK-Blue hTLR8 (HEK293-derived reporter cell line)
# T1 sequence (Q9NR97 27-1041): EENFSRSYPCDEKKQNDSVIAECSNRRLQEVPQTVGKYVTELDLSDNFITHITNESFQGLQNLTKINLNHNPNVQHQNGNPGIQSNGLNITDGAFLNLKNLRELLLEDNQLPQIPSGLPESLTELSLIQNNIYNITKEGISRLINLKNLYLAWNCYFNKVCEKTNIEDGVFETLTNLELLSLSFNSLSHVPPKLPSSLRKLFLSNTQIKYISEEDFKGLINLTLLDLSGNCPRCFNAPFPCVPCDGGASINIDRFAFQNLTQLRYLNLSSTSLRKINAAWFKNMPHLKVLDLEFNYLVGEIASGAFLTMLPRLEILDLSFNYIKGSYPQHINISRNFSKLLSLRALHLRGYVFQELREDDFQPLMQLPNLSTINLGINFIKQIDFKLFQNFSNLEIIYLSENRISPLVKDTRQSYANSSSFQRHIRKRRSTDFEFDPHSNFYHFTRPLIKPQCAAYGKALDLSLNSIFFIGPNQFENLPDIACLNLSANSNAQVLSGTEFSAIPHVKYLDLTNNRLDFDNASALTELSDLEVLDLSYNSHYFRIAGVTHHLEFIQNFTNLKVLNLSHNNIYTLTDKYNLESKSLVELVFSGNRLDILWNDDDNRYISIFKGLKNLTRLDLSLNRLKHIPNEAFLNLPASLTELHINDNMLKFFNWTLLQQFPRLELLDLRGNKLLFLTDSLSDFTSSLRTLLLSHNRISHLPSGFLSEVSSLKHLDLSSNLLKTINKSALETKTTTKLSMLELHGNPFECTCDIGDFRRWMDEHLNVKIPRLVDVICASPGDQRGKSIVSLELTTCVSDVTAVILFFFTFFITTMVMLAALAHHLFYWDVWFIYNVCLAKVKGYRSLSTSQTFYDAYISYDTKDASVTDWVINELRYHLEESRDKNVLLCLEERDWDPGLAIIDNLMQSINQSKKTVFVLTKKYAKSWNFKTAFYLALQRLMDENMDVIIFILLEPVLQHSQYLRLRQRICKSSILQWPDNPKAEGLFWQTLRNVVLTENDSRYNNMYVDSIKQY
# Protocol: (§1) Reporter cells lines (namely HEK-Blue Null1, HEK-Blue hTLR7 and HEK-Blue hTLR8) are obtained from InvivoGen. Cells are passed/expanded/stored in liquid nitrogen per supplier's instruction. The cells are typically split twice per week in the growth media of DMEM supplemented with 10% fetal bovine serum, 1× NEAA, 1 mM Pyruvate, 2 mM glutamine, 50 μg/mL penicillin, 50 U/mL streptomycin (each from Gibco) in the presence of the following antibiotics, as shown in Table 3:
# (§2) Test samples (at desired concentrations diluted in DMEM) are added to the 96-well assay plate, 20 μL per well. Reporter cells are harvested from the tissue culture flasks by incubation in PBS at 37° C. for two minutes after the media in the flask is removed and cells rinsed with PBS. Cells are counted and diluted in the HEK-Blue Detection media at 0.22×10^6 cells/mL. Then 180 μL of cells are added to the assay plate containing the 20 μL of test samples, and incubated for 17 hours at 37° C. in a 5% CO2 humidified incubator. Optical density at 640 nm is analyzed using an Envision (Perkin Elmer) plate reader.
# hTLR7 = target: T2, hTLR7 (Homo sapiens, UniProt Q9NYK1); test: TLR7/TLR8 reporter assay, HEK-Blue hTLR7 reporter cells; assay type: cell-based; conditions: 17 hours, optical density at 640 nm
# T2 construct: host or cells: HEK-Blue hTLR7 (HEK293-derived reporter cell line)
# T2 sequence (Q9NYK1 27-1049): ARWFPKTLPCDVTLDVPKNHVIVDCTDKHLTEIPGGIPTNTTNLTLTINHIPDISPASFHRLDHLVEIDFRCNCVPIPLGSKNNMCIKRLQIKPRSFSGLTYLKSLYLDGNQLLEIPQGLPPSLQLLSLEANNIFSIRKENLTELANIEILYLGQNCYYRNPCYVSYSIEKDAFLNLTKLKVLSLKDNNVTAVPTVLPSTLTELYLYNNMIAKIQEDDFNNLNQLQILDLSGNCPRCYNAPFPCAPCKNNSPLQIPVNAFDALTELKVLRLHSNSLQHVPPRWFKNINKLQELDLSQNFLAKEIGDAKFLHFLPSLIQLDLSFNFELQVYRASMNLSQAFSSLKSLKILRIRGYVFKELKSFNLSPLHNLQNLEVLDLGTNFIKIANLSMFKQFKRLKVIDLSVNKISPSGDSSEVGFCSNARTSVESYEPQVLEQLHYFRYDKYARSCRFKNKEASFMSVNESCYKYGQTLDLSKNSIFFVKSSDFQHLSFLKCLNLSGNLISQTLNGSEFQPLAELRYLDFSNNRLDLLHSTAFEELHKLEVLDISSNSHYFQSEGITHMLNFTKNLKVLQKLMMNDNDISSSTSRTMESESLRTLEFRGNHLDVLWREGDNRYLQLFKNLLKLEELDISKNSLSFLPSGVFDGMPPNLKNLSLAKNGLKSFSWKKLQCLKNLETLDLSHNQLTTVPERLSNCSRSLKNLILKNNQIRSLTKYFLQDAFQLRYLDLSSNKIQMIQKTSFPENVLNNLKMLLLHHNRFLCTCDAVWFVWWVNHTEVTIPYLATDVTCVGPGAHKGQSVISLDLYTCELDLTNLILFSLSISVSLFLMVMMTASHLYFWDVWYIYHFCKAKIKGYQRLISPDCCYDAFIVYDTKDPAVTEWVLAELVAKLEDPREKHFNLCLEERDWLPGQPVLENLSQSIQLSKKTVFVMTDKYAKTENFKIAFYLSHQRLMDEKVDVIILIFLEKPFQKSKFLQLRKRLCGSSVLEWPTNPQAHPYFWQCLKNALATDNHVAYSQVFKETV
# Protocol: as §1, §2
# Trop2+ MDA-MB-453 cells = test: Antigen dependent human monocyte activation in mouse model, TROP2+ tumor; assay type: in vivo; conditions: NOD SCID mice with TROP2+ tumor, 5-20 mg/kg intravenously, human monocytes injected intratumorally
# Protocol: (§3) Human monocytes were prepared as described above. Trop2^+ MDA-MB-453 cells or Trop2^− MiaPaca2 were cultured by standard methods. A TLR8 benzazepine linker payload (LP) was prepared by attaching a MCC (N-maleimidomethyl]cyclohexane-1-carboxylate) linker in place of the mc-vc-PABA linker in Compound-Linker 2.1 to form Compound-Linker 2.22. TROP2-TLR8 benzazepine conjugates were prepared by conjugation of Compound-Linker 2.22 to a TROP2 antibody (sacituzumab) to form a conjugate with an average DAR of about 4.
# (§4) On Day 1 NOD SCID mice were injected with 5×10^5 Trop2^+ MDA-MB-453 cells or Trop2-MiaPaca2 cells. Seven to ten days later when the tumor size reached about 300 mm^3, the mice were injected intraveneously with 5-20 mg/kg of the TROP2-TLR8 benzazepine conjugate or TROP2 antibody alone. Sixteen hours later, 10^6 human monocytes were injected intratumorally. Four to six hours later, the tumors were harvested and digested. Monocytes were identified by staining for cell surface markers and monocyte activation was determined by intracellular staining for IL-6.
# Trop2− MiaPaca2 = test: Antigen dependent human monocyte activation in mouse model, TROP2− tumor; assay type: in vivo; conditions: NOD SCID mice with TROP2− tumor, 5-20 mg/kg intravenously, human monocytes injected intratumorally
# Protocol: as §3, §4
Compound,EC50 (hTLR8) [nM],EC50 (hTLR7) [nM],human monocyte activation (intracellular staining for IL-6) (Trop2+ MDA-MB-453 cells),human monocyte activation (intracellular staining for IL-6) (Trop2− MiaPaca2)
"CCCN(CCC)C(=O)C1=Cc2ccc(C(=O)Nc3cncc(CNC(=O)[C@H](Cc4ccccc4)NC(=O)OCc4ccccc4)c3)cc2N=C(N)C1 [Compound 1.16, benzyl (S)-(1-(((5-(2-amino-4-(dipropyl-carbamoyl)-3H-benzo[b]azepine-8-carboxamido)pyridin-3-yl)methyl)amino)-1-oxo-3-phenylpropan-2-yl)carbamate]",500 to 1000,> 1000,–,–
"CCCN(CCC)C(=O)C1=Cc2ccc(C(=O)Nc3cccc([C@H]4CN(Cc5ccccc5)C[C@@H]4C(=O)OC)c3)cc2N=C(N)C1 [Compound 1.18, methyl (3R,4S)-4-(3-(2-amino-4-(dipropylcarbamoyl)-3H-benzo[b]azepine-8-carboxamido)phenyl)-1-benzylpyrrolidine-3-carboxylate trifluoroacetate salt]",> 1000,> 1000,–,–
"control antibody: ""TROP2 antibody alone""; ""a TROP2 antibody (sacituzumab)""",–,–,did not cause human monocyte activation,did not cause human monocyte activation

# Second part, led by results:
EC50 (hTLR8) [nM],EC50 (hTLR7) [nM],Compound,human monocyte activation (intracellular staining for IL-6) (Trop2+ MDA-MB-453 cells),human monocyte activation (intracellular staining for IL-6) (Trop2− MiaPaca2)
< 500,> 1000,"CCCN(CCC)C(=O)C1=Cc2ccc(C(=O)Nc3cncc(CNC(=O)[C@@H](NC(=O)OCc4ccccc4)C(C)C)c3)cc2N=C(N)C1 [Compound 1.15, benzyl (S)-(1-(((5-(2-amino-4-(dipropyl-carbamoyl)-3H-benzo[b]azepine-8-carboxamido)pyridin-3-yl)methyl)amino)-3-methyl-1-oxobutan-2-yl)carbamate]",–,–
< 500,> 1000,"CCCN(CCC)C(=O)C1=Cc2ccc(C(=O)Nc3cncc(CNC(=O)[C@@H]4CCCN4C(=O)OCc4ccccc4)c3)cc2N=C(N)C1 [Compound 1.17, benzyl (S)-2-(((5-(2-amino-4-(dipropyl-carbamoyl)-3H-benzo[b]azepine-8-carboxamido)pyridin-3-yl)methyl)carbamoyl)pyrrolidine-1-carboxylate]",–,–
